Assay results: patent US20230085307A1, “PYRIDAZINONE COMPOUND AND HERBICIDE” (NISSAN CHEMICAL CORPORATION, priority 2019, published 2023)

Assays:
blackgrass [1] = assay: Test Example 5: herbicidal effect by foliage application, plastic box (Table 20, symbol J); format: in vivo, blackgrass (Alopecurus myosuroides); settings: amount of applied herbicide 320 g/ha; foliage application after 14-day growth; evaluated three weeks after application
Method in brief: (§1)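 Foliar spray test: emulsion formulation diluted in water to a set application rate, sprayed onto 14-day-old plants raised in diluvial soil at 25° C to 30° C under glass. Both herbicidal effect and crop effect rated visually three weeks later.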

blackgrass [2] = assay: Test Example 4: herbicidal effect by soil treatment (Table 19, symbol J); format: in vivo, blackgrass (Alopecurus myosuroides); settings: amount of applied herbicide 320 g/ha
Method in brief: (§2)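 Step 1: sow seeds in sterilized diluvial soil, cover ~1.5 cm. Step 2: spray diluted emulsion onto soil surface at predetermined rate. Step 3: greenhouse, 25–30° C, three weeks. Step 4: grade effect on each plant by earlier criteria.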

wild oat [3] = assay: Test Example 5: herbicidal effect by foliage application, plastic box (Table 20, symbol I); format: in vivo, wild oat (Avena fatua); settings: amount of applied herbicide 320 g/ha; foliage application after 14-day growth; evaluated three weeks after application
Method in brief: as §1

redroot pigweed [4] = assay: Test Example 4: herbicidal effect by soil treatment (Table 19, symbol N); format: in vivo, redroot pigweed (Amaranthus retroflexus); settings: amount of applied herbicide 320 g/ha
Method in brief: as §2

persian speedwell [5] = assay: Test Example 4: herbicidal effect by soil treatment (Table 19, symbol R); format: in vivo, Persian speedwell (Veronica persica); settings: amount of applied herbicide 320 g/ha
Method in brief: as §2

barnyard grass [6] = assay: Test Example 5: herbicidal effect by foliage application, plastic box (Table 20, symbol H); format: in vivo, barnyard grass (Echinochloa crus-galli); settings: amount of applied herbicide 320 g/ha; foliage application after 14-day growth; evaluated three weeks after application
Method in brief: as §1

Italian ryegrass [7] = assay: Test Example 4: herbicidal effect by soil treatment (Table 19, symbol K); format: in vivo, Italian ryegrass (Lolium multiflorum); settings: amount of applied herbicide 320 g/ha
Method in brief: as §2

chickweed [8] = assay: Test Example 5: herbicidal effect by foliage application, plastic box (Table 20, symbol P); format: in vivo, common chickweed (Stellaria media); settings: amount of applied herbicide 320 g/ha; foliage application after 14-day growth; evaluated three weeks after application
Method in brief: as §1

velvetleaf [9] = assay: Test Example 4: herbicidal effect by soil treatment (Table 19, symbol M); format: in vivo, velvetleaf (Abutilon theophrasti); settings: amount of applied herbicide 320 g/ha
Method in brief: as §2

lambsquarters [10] = assay: Test Example 5: herbicidal effect by foliage application, plastic box (Table 20, symbol O); format: in vivo, lambsquarters (Chenopodium album); settings: amount of applied herbicide 320 g/ha; foliage application after 14-day growth; evaluated three weeks after application
Method in brief: as §1

windgrass [11] = assay: Test Example 4: herbicidal effect by soil treatment (Table 19, symbol L); format: in vivo, windgrass (Apera spica-venti); settings: amount of applied herbicide 320 g/ha
Method in brief: as §2

barnyard grass [12] = assay: Test Example 4: herbicidal effect by soil treatment (Table 19, symbol H); format: in vivo, barnyard grass (Echinochloa crus-galli); settings: amount of applied herbicide 320 g/ha
Method in brief: as §2

barnyard grass [13] = assay: Test Example 3: herbicidal effect by foliage application, Wagner pot (Table 18, symbol H); format: in vivo, barnyard grass (Echinochloa crus-galli); settings: 320 g/ha
Method in brief: (§3)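 Plants were sown in alluvial soil held under 0.1–0.5 cm standing water and grown 14 days in a greenhouse at 25–30 °C. An emulsifiable formulation, water-diluted to the set dose, was then sprayed onto the foliage, and effects were scored three weeks later using previously defined criteria.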

chickweed [14] = assay: Test Example 4: herbicidal effect by soil treatment (Table 19, symbol P); format: in vivo, common chickweed (Stellaria media); settings: amount of applied herbicide 320 g/ha
Method in brief: as §2

wild oat [15] = assay: Test Example 4: herbicidal effect by soil treatment (Table 19, symbol I); format: in vivo, wild oat (Avena fatua); settings: amount of applied herbicide 320 g/ha
Method in brief: as §2

Japanese bulrush = assay: Test Example 2: herbicidal activity, application during weed generation under submerged conditions (Table 17, symbol B); format: in vivo, Japanese bulrush (Schoenoplectus juncoides); settings: AAH 320 g/ha; application during weed generation, submerged conditions
Method in brief: (§4)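 Alluvial soil in Wagner pots was flooded to 4 cm depth and sown with the three weeds together; pots were kept in a greenhouse at 25° C. to 30° C. At the one to two leaf stage, an emulsion formulation diluted in water to a set rate went onto the water surface; scored three weeks later.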

rice flat sedge = assay: Test Example 3: herbicidal effect by foliage application, Wagner pot (Table 18, symbol E); format: in vivo, rice flat sedge (Cyperus iria); settings: 320 g/ha
Method in brief: as §3

Chinese sprangletop = assay: Test Example 3: herbicidal effect by foliage application, Wagner pot (Table 18, symbol D); format: in vivo, chinese sprangletop (Leptochloa chinensis); settings: 320 g/ha
Method in brief: as §3

green foxtail [16] = assay: Test Example 5: herbicidal effect by foliage application, plastic box (Table 20, symbol G); format: in vivo, green foxtail (Setaria viridis); settings: amount of applied herbicide 320 g/ha; foliage application after 14-day growth; evaluated three weeks after application
Method in brief: as §1

lambsquarters [17] = assay: Test Example 4: herbicidal effect by soil treatment (Table 19, symbol O); format: in vivo, lambsquarters (Chenopodium album); settings: amount of applied herbicide 320 g/ha
Method in brief: as §2

redroot pigweed [18] = assay: Test Example 5: herbicidal effect by foliage application, plastic box (Table 20, symbol N); format: in vivo, redroot pigweed (Amaranthus retroflexus); settings: amount of applied herbicide 320 g/ha; foliage application after 14-day growth; evaluated three weeks after application
Method in brief: as §1

oval-leafed pondweed = assay: Test Example 2: herbicidal activity, application during weed generation under submerged conditions (Table 17, symbol C); format: in vivo, oval-leafed pondweed (Monochoria vaginalis); settings: AAH 320 g/ha; application during weed generation, submerged conditions
Method in brief: as §4

late watergrass = assay: Test Example 2: herbicidal activity, application during weed generation under submerged conditions (Table 17, symbol A); format: in vivo, late watergrass (Echinochloa oryzicola); settings: AAH 320 g/ha; application during weed generation, submerged conditions
Method in brief: as §4

southern crabgrass [19] = assay: Test Example 4: herbicidal effect by soil treatment (Table 19, symbol F); format: in vivo, southern crabgrass (Digitaria ciliaris); settings: amount of applied herbicide 320 g/ha
Method in brief: as §2

Italian ryegrass [20] = assay: Test Example 5: herbicidal effect by foliage application, plastic box (Table 20, symbol K); format: in vivo, Italian ryegrass (Lolium multiflorum); settings: amount of applied herbicide 320 g/ha; foliage application after 14-day growth; evaluated three weeks after application
Method in brief: as §1

windgrass [21] = assay: Test Example 5: herbicidal effect by foliage application, plastic box (Table 20, symbol L); format: in vivo, windgrass (Apera spica-venti); settings: amount of applied herbicide 320 g/ha; foliage application after 14-day growth; evaluated three weeks after application
Method in brief: as §1

southern crabgrass [22] = assay: Test Example 5: herbicidal effect by foliage application, plastic box (Table 20, symbol F); format: in vivo, southern crabgrass (Digitaria ciliaris); settings: amount of applied herbicide 320 g/ha; foliage application after 14-day growth; evaluated three weeks after application
Method in brief: as §1

green foxtail [23] = assay: Test Example 4: herbicidal effect by soil treatment (Table 19, symbol G); format: in vivo, green foxtail (Setaria viridis); settings: amount of applied herbicide 320 g/ha
Method in brief: as §2

persian speedwell [24] = assay: Test Example 5: herbicidal effect by foliage application, plastic box (Table 20, symbol R); format: in vivo, Persian speedwell (Veronica persica); settings: amount of applied herbicide 320 g/ha; foliage application after 14-day growth; evaluated three weeks after application
Method in brief: as §1

velvetleaf [25] = assay: Test Example 5: herbicidal effect by foliage application, plastic box (Table 20, symbol M); format: in vivo, velvetleaf (Abutilon theophrasti); settings: amount of applied herbicide 320 g/ha; foliage application after 14-day growth; evaluated three weeks after application
Method in brief: as §1

Compound: Cc1nn(C)c(=O)c(-c2c(-c3ccc(F)cc3)sc3cc(Cl)c(Cl)cc23)c1O [5-039]
- Herbicidal effect by foliage application, J: blackgrass (blackgrass [1]): 4 (Herbicidal rate of 70% or more and less than 90%)
- J: blackgrass, herbicidal effect grade (blackgrass [2]): 0 (Herbicidal rate of 5% or less (almost no effect))
- Herbicidal effect by foliage application, I: wild oat (wild oat [3]): 5 (Herbicidal rate of 90% or more (almost completely withered))
- N: redroot pigweed, herbicidal effect grade (redroot pigweed [4]): 3 (Herbicidal rate of 40% or more and less than 70%)
- R: persian speedwell, herbicidal effect grade (persian speedwell [5]): 0 (Herbicidal rate of 5% or less (almost no effect))
- Herbicidal effect by foliage application, H: barnyard grass (barnyard grass [6]): 4 (Herbicidal rate of 70% or more and less than 90%)
- K: Italian ryegrass, herbicidal effect grade (Italian ryegrass [7]): 0 (Herbicidal rate of 5% or less (almost no effect))
- Herbicidal effect by foliage application, P: chickweed (chickweed [8]): 5 (Herbicidal rate of 90% or more (almost completely withered))
- M: velvetleaf, herbicidal effect grade (velvetleaf [9]): 0 (Herbicidal rate of 5% or less (almost no effect))
- Herbicidal effect by foliage application, O: lambsquarters (lambsquarters [10]): 5 (Herbicidal rate of 90% or more (almost completely withered))
- L: windgrass, herbicidal effect grade (windgrass [11]): 0 (Herbicidal rate of 5% or less (almost no effect))
- H: barnyard grass, herbicidal effect grade (barnyard grass [12]): 0 (Herbicidal rate of 5% or less (almost no effect))
- herbicidal effect on barnyard grass (H) (barnyard grass [13]): 4 (Herbicidal rate of 70% or more and less than 90%)
- P: chickweed, herbicidal effect grade (chickweed [14]): 0 (Herbicidal rate of 5% or less (almost no effect))
- I: wild oat, herbicidal effect grade (wild oat [15]): 0 (Herbicidal rate of 5% or less (almost no effect))
- herbicidal effect rating, B: Japanese bulrush (Japanese bulrush): 0 (Herbicidal rate of 5% or less (almost no effect))
- herbicidal effect on rice flat sedge (E) (rice flat sedge): 5 (Herbicidal rate of 90% or more (almost completely withered))
- herbicidal effect on Chinese sprangletop (D) (Chinese sprangletop): 3 (Herbicidal rate of 40% or more and less than 70%)
- Herbicidal effect by foliage application, G: green foxtail (green foxtail [16]): 5 (Herbicidal rate of 90% or more (almost completely withered))
- O: lambsquarters, herbicidal effect grade (lambsquarters [17]): 1 (Herbicidal rate of 5% or more and less than 20%)
- Herbicidal effect by foliage application, N: redroot pigweed (redroot pigweed [18]): 5 (Herbicidal rate of 90% or more (almost completely withered))
- herbicidal effect rating, C: oval-leafed pondweed (oval-leafed pondweed): 0 (Herbicidal rate of 5% or less (almost no effect))
- herbicidal effect rating, A: late watergrass (late watergrass): 3 (Herbicidal rate of 40% or more and less than 70%)
- F: southern crabgrass, herbicidal effect grade (southern crabgrass [19]): 0 (Herbicidal rate of 5% or less (almost no effect))
- Herbicidal effect by foliage application, K: Italian ryegrass (Italian ryegrass [20]): 4 (Herbicidal rate of 70% or more and less than 90%)
- Herbicidal effect by foliage application, L: windgrass (windgrass [21]): 5 (Herbicidal rate of 90% or more (almost completely withered))
- Herbicidal effect by foliage application, F: southern crabgrass (southern crabgrass [22]): 4 (Herbicidal rate of 70% or more and less than 90%)
- G: green foxtail, herbicidal effect grade (green foxtail [23]): 0 (Herbicidal rate of 5% or less (almost no effect))
- Herbicidal effect by foliage application, R: persian speedwell (persian speedwell [24]): 4 (Herbicidal rate of 70% or more and less than 90%)
- Herbicidal effect by foliage application, M: velvetleaf (velvetleaf [25]): 3 (Herbicidal rate of 40% or more and less than 70%)
